Measured values from patent publication US8541585B2, “N-acyl cyclic amine derivative or pharmaceutically acceptable salt thereof” (Dainippon Sumitomo Pharma Co., Ltd., priority 2010, dated 2013).

How the values were obtained:
[1] = biological target: T1, human 5-HT6 receptor (Homo sapiens, UniProt P50406); assay: Serotonin 5-HT6 receptor binding assay ([3H]-clozapine); details: 100 nM test drug; [3H]-clozapine 2 nM; human 5-HT6 receptor-expressing CHO cell membrane; read-out: BINDING INHIBITION RATE (%) 5HT6 100 nM
T1 construct: expressed in transfected cells; host or cells: CHO cells (membrane preparation)
T1 sequence (P50406 whole entry): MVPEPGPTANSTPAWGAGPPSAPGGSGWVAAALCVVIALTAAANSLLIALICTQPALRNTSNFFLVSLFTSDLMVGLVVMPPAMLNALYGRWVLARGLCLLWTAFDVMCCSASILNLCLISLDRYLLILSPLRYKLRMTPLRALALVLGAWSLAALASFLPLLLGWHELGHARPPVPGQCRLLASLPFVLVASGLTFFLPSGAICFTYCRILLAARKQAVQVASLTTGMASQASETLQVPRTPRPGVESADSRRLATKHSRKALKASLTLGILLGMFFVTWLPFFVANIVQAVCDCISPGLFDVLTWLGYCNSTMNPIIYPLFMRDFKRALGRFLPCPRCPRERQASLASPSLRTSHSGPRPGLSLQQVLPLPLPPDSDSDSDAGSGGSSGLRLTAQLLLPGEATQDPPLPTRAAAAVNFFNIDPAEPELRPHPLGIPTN
Protocol: (3) Serotonin 5-HT6 Receptor Binding Assay
After a reaction in a total volume of 200 μL of 50 mM Tris-HCl (pH=7.6), 4 mM CaCl2, and 0.5 mM EDTA buffer solution containing 50 μL of [^3H]-clozapine (final concentration 2 nM), 1 μL of test drug in DMSO, and 149 μL of human 5-HT6 receptor-expressing CHO cell membrane sample, human 5-HT6 receptor binding activity of [^3H]-clozapine was measured. The reaction solution let stand for 40 minutes at room temperature, and then it was quickly added on a glass fiber filter plate (Multiscreen FB, Millipore inc.) coated with 0.3% polyethyleneimine (PEI) and filtered under reduced pressure. The glass fiber filter was washed with 200 μL of ice-cooled 50 mM Tris-HCl (pH=7.6) twice, repeatedly filtered under reduced pressure, and then transferred to a vial containing 4 mL of Ecoscint A (National Diagnostics inc.). The residual radioactivity on the glass fiber filter was measured by a liquid scintillation counter. Nonspecific binding was measured in the presence of 10 μM of SB-258585, and [^3H]-clozapine binding inhibition rate in the presence of 100 nM of test drug was determined.

[2] = biological target: human D2L receptor (Homo sapiens, UniProt P14416); assay: Dopamine D2L receptor binding assay ([3H]-spiperone); details: 10 nM test drug; [3H]-spiperone 0.5 nM; human D2L receptor-expressing CHO cell membrane; read-out: BINDING INHIBITION RATE (%) D2L 10 nM
Chain of human D2L receptor (P14416 whole entry): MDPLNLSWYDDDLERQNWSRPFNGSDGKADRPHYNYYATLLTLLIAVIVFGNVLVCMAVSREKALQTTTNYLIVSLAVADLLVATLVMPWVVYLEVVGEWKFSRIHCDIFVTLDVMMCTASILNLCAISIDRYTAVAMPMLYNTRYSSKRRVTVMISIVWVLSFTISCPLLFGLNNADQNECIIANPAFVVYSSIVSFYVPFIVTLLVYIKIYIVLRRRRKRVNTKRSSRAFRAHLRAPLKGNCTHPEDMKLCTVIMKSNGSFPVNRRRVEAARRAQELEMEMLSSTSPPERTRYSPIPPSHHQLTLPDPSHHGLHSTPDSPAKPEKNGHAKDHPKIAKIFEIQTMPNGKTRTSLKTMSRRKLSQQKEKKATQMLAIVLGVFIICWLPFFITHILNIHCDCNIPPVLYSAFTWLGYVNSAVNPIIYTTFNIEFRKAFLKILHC
Protocol: (1) Dopamine D2L Receptor Binding Assay
D2L receptor binding assay was performed in reference to a method described by Hirose et al. (Japan. J. Pharmacol., 53, 321-329, 1990). After a reaction in a total volume of 200 μL of 50 mM Tris-HCl (pH=7.6) buffer solution containing 50 μL of [^3H]-spiperone (final concentration 0.5 nM), 1 μL of test drug in DMSO, and 149 μL of human D2L receptor-expressing CHO cell membrane sample, human D2L receptor binding activity of [^3H]-spiperone was measured. The reaction solution let stand for 60 minutes at room temperature, and then it was quickly added on a glass fiber filter plate (Multiscreen FB, Millipore inc.) coated with 0.3% polyethyleneimine (PEI) and filtered under reduced pressure. The glass fiber filter was washed with 200 μL of ice-cooled 50 mM Tris-HCl (pH=7.6) twice, repeatedly filtered under reduced pressure, and then transferred to a vial containing 4 mL of Ecoscint A (National Diagnostics inc.). The residual radioactivity on the glass fiber filter was measured by a liquid scintillation counter. Nonspecific binding was measured in the presence of 10 μM of spiperone, and [^3H]-spiperone binding inhibition rate in the presence of 10 nM of test drug was determined. The larger binding inhibition rate (%) means that test drug has the higher binding affinity for human D2L receptor.

[3] = biological target: T2, human α1D receptor (Homo sapiens, UniProt P25100); assay: Adrenaline α1D receptor binding assay ([3H]-prazosin); details: 100 nM test drug; [3H]-prazosin 0.6 nM; human α1D receptor-expressing CHO cell membrane; read-out: BINDING INHIBITION RATE (%) α1D 100 nM
T2 construct: expressed in transfected cells; host or cells: CHO cells (membrane preparation)
T2 sequence (P25100 1-572): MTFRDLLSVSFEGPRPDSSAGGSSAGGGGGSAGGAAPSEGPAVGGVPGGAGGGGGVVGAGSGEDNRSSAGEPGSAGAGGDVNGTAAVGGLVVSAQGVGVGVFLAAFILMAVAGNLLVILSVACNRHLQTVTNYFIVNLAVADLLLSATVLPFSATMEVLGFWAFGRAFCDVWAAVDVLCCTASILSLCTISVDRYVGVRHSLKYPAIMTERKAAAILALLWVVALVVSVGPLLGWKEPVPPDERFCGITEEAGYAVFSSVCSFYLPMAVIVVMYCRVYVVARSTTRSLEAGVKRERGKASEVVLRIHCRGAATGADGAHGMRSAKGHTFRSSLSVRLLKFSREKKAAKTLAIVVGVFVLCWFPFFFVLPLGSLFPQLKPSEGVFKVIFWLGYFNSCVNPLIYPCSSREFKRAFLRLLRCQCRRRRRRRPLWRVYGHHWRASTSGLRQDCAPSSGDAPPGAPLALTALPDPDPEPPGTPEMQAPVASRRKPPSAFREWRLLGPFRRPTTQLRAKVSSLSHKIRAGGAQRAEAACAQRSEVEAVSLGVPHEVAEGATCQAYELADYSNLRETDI
Protocol: (4) Adrenaline α1D Receptor Binding Assay
After a reaction in a total volume of 200 μL of 50 mM Tris-HCl (pH=7.6) buffer solution containing 50 μL of [^3H]-prazosin (final concentration 0.6 nM), 1 μL of test drug in DMSO, and 149 μL of human α1D receptor-expressing CHO cell membrane sample, human α1D receptor binding activity of [^3H]-prazosin was measured. The reaction solution let stand for 30 minutes at room temperature, and then it was quickly added on a glass fiber filter plate (Multiscreen FB, Millipore inc.) coated with 0.3% polyethyleneimine (PEI) and filtered under reduced pressure. The glass fiber filter was washed with 200 μL of ice-cooled 50 mM Tris-HCl (pH=7.6) twice, repeatedly filtered under reduced pressure, and then transferred to a vial containing 4 mL of Ecoscint A (National Diagnostics inc.). The residual radioactivity on the glass fiber filter was measured by a liquid scintillation counter. Nonspecific binding was measured in the presence of 1 μM of prazosin, and [^3H]-prazosin binding inhibition rate in the presence of 100 nM of test drug was determined.

[4] = biological target: T3, human 5-HT2A receptor (Homo sapiens, UniProt P28223); assay: Serotonin 5-HT2A receptor binding assay ([3H]-ketanserin); details: [3H]-ketanserin 1 nM, human 5-HT2A receptor-expressing CHO cell membrane; for inhibition at 0.001 µM: 1 nM test drug, read-out: BINDING INHIBITION RATE (%) 5HT2A 1 nM; for inhibition at 0.01 µM: 10 nM test drug, read-out: BINDING INHIBITION RATE (%) 5HT2A 10 nM
T3 construct: expressed in transfected cells; host or cells: CHO cells (membrane preparation)
T3 sequence (P28223 whole entry): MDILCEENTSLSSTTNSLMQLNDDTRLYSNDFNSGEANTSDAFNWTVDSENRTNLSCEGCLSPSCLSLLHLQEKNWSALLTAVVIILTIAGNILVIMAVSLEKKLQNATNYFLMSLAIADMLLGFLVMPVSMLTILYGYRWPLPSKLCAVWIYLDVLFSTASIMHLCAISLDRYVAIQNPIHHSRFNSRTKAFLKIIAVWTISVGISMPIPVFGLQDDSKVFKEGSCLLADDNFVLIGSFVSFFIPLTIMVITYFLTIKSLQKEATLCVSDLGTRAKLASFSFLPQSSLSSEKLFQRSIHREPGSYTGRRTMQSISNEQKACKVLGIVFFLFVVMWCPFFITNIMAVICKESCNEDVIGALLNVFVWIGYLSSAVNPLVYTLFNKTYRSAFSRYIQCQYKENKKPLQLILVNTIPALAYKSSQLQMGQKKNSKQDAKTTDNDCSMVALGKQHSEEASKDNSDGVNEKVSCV
Protocol: (2) Serotonin 5-HT2A Receptor Binding Assay
5-HT2A receptor binding assay was performed in reference to a method described by Hirose et al. (Japan. J. Pharmacol., 53, 321-329, 1990). After a reaction in a total volume of 200 μL of 50 mM Tris-HCl (pH=7.6) buffer solution containing 50 μL of [^3H]-ketanserin (final concentration 1 nM), 1 μL of test drug in DMSO, and 149 μL of human 5-HT2A receptor-expressing CHO cell membrane sample, human 5-HT2A receptor binding activity of [^3H]-ketanserin was measured. The reaction solution let stand for 15 minutes at 37° C., and then it was quickly added on a glass fiber filter plate (Multiscreen FB, Millipore inc.) coated with 0.05% Brij 35 and filtered under reduced pressure. The glass fiber filter was washed with 200 μL of ice-cooled 50 mM Tris-HCl (pH=7.6) twice, repeatedly filtered under reduced pressure, and then transferred to a vial containing 4 mL of Ecoscint A (National Diagnostics inc.). The residual radioactivity on the glass fiber filter was measured by a liquid scintillation counter. Nonspecific binding was measured in the presence of 10 μM of MDL-100907, and [^3H]-ketanserin binding inhibition rate in the presence of 1 nM or 10 nM of test drug was determined.

| SMILES | inhibition at 0.1 µM [1] | inhibition at 0.01 µM [2] | inhibition at 0.1 µM [3] | inhibition at 0.001 µM [4] | inhibition at 0.01 µM [4] |
| --- | --- | --- | --- | --- | --- |
| O=C(c1ccc(F)cc1)C1CCN(CC[C@@H]2CCCN2C(=O)c2cc3ccc(OC(F)(F)F)cc3[nH]2)CC1 [Example 160, (S)-(2-(2-(4-(4-Fluorobenzoyl)piperidin-1-yl)ethyl)pyrrolidin-1-yl)(6-(trifluoromethoxy)-1H-indol-2-yl)methanone] | 98% | 90% | 53% | 72% |  |
| Cc1ccc2cc(C(=O)N3CCC[C@H]3CCN3CCC(N4CCc5cc(F)ccc54)CC3)[nH]c2c1 [Example 3] | 94% | 80% | 74% | 65% |  |
| O=C(/C=C/c1ccc2c(c1)OCO2)N1CCC[C@H](CN2CCC(c3noc4cc(F)ccc34)CC2)C1 [Example 17] | 93% | 84% | 92% |  | 99% |
| Cc1ccc2cc(C(=O)N3CCC[C@H]3CCN3CCC(N4CCCc5ccccc54)CC3)[nH]c2c1 [Example 12] | 84% | 59% | 43% | 28% |  |
| Cc1ccc2[nH]c(C(=O)N3CCC[C@H]3CCN3CCC(c4coc5ccccc45)CC3)cc2c1 [Example 8, (S)-(2-(2-(4-(Benzofuran-3-yl)piperidin-1-yl)ethyl)pyrrolidin-1-yl)(5-methyl-1H-indol-2-yl)methanone] | 93% | 76% | 62% |  | 92% |
| O=C(c1ccc(F)cc1)C1CCN(C[C@H]2CCCN(C(=O)c3cc4ccc(Cl)cc4[nH]3)C2)CC1 [Example 45] | 97% | 82% | 46% | 84% |  |
| O=C(c1ccc(F)cc1)C1CCN(CC[C@@H]2CCCN2C(=O)c2[nH]c3ccccc3c2C(=O)N2CCCCC2)CC1 [Example 54] | 81% | 71% | 63% | 7% |  |
| Cc1cccc2cc(C(=O)N3CCC[C@H]3CCN3CCC(C(=O)c4ccc(F)cc4)CC3)[nH]c12 [Example 61] | 82% | 69% | 29% | 46% |  |
